In one data set the target is MAP kinase p38 (Homo sapiens, UniProt O15264+Q15759+Q16539+P53778). Kind of data set: Inhibition of MAPK p38 (unknown origin).
The target of data set [1] is Macrophage-stimulating protein receptor (Homo sapiens, UniProt Q04912). Kind of data set: Inhibition of recombinant human GST-tagged RON cytoplasmic domain expressed in baculovirus expression system.
Data set [2] has as its target T1, Tyrosine-protein kinase Mer (Homo sapiens, UniProt Q12866).
T1 sequence (Q12866 whole entry): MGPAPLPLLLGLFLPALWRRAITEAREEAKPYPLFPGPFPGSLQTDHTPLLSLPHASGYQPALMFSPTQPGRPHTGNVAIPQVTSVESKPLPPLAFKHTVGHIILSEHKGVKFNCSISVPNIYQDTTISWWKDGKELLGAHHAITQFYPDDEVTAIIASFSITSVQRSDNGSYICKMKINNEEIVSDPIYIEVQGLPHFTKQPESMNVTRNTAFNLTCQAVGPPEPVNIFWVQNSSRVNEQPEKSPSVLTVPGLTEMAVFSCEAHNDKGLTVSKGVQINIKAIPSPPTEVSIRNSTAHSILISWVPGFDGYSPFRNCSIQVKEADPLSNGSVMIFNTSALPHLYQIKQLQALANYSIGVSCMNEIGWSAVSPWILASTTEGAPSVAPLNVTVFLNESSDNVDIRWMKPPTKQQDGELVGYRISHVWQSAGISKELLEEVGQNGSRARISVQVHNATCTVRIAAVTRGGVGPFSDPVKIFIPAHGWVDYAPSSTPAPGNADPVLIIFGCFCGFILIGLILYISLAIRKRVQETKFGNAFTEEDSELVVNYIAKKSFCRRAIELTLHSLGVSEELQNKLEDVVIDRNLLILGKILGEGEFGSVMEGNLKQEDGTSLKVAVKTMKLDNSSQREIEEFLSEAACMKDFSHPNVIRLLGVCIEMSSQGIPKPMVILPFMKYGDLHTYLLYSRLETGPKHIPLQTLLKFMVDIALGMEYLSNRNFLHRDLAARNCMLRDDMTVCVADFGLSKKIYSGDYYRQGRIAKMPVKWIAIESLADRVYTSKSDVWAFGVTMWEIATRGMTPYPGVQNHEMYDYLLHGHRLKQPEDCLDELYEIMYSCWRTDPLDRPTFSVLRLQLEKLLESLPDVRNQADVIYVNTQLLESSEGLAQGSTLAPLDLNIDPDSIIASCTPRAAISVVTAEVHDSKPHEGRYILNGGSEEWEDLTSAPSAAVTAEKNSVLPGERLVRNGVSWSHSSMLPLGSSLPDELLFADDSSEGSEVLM
Kind of data set: Inhibition of recombinant human GST-tagged MER cytoplasmic domain expressed in baculovirus expression system.

The target in another data set is T2, Ephrin type-A receptor 3 (Homo sapiens, UniProt P29320).
T2 sequence (P29320 whole entry): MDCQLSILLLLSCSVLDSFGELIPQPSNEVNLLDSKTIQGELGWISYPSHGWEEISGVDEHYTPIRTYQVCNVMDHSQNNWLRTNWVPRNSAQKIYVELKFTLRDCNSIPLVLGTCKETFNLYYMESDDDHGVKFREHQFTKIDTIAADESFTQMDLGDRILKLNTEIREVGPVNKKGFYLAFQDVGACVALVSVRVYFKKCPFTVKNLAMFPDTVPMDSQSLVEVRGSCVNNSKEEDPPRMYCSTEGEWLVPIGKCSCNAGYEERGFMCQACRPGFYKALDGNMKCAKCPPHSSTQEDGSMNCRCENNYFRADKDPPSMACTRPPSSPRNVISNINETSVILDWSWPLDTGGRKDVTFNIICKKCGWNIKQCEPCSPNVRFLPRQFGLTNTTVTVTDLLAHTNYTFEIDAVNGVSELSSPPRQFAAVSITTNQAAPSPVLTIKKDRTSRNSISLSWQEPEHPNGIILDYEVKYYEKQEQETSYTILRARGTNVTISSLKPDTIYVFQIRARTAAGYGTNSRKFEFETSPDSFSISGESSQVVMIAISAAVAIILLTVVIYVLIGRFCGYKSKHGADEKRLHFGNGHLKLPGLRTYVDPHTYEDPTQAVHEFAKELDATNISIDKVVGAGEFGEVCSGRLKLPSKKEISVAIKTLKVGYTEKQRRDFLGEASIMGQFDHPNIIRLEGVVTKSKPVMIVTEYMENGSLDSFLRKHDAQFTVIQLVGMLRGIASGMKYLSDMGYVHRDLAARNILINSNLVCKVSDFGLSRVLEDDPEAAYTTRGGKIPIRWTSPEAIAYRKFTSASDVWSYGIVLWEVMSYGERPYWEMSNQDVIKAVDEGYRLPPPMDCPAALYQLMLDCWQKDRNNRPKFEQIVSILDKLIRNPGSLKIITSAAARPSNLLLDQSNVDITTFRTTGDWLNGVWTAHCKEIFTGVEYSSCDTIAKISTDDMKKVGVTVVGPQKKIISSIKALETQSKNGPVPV
Kind of data set: Inhibition of recombinant human His-tagged EPHA3 cytoplasmic domain (569 to 976 residues) expressed in baculovirus expression system.

For the next data set, the target named is CYP3A4 (Homo sapiens, UniProt P08684). Kind of data set: Inhibition of CYP3A4 (unknown origin) at 10 uM relative to control. It is filed as ADME.
For data set [3], the target named is Rho-associated protein kinase 1 (Homo sapiens, UniProt Q13464). Kind of data set: Inhibition of recombinant human GST-tagged ROCK1 catalytic domain expressed in baculovirus expression system.
In data set [4] the target is Receptor tyrosine-protein kinase erbB-4 (Homo sapiens, UniProt Q15303). Kind of data set: Inhibition of recombinant human N-terminal GST-tagged ERBB4 cytoplasmic domain (708 to 993 residues) expressed in baculovirus expression system.
Data set [5] deals with T3, Tyrosine-protein kinase ITK/TSK (Homo sapiens, UniProt Q08881).
T3 sequence (Q08881 whole entry): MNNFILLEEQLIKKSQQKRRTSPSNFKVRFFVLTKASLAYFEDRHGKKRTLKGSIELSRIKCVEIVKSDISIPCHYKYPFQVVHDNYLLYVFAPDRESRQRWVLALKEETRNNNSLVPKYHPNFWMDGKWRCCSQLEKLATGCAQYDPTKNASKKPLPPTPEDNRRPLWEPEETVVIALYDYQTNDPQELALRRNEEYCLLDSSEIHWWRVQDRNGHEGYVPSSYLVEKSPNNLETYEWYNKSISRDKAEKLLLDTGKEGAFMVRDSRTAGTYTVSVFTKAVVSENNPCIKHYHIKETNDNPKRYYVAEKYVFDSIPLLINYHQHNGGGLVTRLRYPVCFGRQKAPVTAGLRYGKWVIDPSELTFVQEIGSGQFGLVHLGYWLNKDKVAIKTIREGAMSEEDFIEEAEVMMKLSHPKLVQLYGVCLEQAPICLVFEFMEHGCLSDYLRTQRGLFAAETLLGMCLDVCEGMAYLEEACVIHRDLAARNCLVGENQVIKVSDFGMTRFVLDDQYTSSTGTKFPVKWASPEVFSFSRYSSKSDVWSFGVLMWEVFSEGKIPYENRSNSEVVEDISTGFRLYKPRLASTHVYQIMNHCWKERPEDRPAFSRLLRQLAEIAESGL
Kind of data set: Inhibition of recombinant full length human GST-tagged ITK expressed in baculovirus expression system.

Chain of CYP3A4 (P08684 whole entry, the tested form may be a part): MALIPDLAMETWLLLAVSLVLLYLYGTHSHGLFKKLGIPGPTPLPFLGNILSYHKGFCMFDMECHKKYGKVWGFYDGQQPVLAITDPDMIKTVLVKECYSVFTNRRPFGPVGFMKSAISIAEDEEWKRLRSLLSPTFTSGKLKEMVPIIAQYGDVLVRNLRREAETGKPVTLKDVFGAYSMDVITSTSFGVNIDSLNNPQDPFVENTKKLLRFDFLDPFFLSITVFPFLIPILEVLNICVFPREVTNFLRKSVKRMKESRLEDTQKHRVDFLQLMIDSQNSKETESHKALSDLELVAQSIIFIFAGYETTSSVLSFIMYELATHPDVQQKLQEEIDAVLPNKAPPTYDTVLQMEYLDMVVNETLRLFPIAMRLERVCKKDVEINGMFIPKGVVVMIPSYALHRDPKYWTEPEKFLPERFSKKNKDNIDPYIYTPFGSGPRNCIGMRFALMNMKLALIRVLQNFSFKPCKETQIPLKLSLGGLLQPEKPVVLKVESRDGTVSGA
Chain of Rho-associated protein kinase 1 (Q13464 whole entry, the tested form may be a part): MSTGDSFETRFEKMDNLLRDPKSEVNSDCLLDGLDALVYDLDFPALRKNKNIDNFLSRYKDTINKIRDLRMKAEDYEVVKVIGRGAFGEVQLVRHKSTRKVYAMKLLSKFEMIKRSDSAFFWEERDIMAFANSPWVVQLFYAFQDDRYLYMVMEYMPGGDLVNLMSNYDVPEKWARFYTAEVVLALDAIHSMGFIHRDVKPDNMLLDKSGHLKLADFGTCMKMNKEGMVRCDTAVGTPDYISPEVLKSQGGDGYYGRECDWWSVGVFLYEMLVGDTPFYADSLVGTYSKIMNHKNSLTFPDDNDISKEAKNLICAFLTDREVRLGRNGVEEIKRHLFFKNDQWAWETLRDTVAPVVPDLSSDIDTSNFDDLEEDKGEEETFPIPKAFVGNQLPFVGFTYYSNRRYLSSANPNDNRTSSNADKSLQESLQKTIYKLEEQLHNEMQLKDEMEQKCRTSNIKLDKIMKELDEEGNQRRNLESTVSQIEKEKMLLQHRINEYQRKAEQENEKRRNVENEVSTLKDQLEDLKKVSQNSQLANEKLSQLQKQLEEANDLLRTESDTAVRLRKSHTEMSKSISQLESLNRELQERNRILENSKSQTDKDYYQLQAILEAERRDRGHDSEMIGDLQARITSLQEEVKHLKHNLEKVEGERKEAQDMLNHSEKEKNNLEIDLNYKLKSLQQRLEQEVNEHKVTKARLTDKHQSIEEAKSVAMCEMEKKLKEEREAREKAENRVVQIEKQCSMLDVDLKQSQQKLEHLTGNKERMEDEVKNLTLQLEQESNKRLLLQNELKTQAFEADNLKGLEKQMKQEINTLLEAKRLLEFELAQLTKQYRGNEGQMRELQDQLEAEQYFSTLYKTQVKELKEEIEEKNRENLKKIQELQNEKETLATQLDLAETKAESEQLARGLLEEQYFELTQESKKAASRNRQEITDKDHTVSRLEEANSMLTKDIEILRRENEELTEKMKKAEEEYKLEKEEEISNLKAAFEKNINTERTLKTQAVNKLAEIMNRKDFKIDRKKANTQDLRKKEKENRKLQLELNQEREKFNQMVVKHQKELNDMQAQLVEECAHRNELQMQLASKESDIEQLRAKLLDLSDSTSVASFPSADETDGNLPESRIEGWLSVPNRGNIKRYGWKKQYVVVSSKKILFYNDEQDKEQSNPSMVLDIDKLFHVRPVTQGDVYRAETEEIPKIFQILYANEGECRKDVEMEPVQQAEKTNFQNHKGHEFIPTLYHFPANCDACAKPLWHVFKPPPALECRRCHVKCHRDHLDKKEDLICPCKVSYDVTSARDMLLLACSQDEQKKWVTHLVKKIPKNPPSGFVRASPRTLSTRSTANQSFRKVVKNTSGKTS
Chain of Receptor tyrosine-protein kinase erbB-4 (Q15303 whole entry, the tested form may be a part): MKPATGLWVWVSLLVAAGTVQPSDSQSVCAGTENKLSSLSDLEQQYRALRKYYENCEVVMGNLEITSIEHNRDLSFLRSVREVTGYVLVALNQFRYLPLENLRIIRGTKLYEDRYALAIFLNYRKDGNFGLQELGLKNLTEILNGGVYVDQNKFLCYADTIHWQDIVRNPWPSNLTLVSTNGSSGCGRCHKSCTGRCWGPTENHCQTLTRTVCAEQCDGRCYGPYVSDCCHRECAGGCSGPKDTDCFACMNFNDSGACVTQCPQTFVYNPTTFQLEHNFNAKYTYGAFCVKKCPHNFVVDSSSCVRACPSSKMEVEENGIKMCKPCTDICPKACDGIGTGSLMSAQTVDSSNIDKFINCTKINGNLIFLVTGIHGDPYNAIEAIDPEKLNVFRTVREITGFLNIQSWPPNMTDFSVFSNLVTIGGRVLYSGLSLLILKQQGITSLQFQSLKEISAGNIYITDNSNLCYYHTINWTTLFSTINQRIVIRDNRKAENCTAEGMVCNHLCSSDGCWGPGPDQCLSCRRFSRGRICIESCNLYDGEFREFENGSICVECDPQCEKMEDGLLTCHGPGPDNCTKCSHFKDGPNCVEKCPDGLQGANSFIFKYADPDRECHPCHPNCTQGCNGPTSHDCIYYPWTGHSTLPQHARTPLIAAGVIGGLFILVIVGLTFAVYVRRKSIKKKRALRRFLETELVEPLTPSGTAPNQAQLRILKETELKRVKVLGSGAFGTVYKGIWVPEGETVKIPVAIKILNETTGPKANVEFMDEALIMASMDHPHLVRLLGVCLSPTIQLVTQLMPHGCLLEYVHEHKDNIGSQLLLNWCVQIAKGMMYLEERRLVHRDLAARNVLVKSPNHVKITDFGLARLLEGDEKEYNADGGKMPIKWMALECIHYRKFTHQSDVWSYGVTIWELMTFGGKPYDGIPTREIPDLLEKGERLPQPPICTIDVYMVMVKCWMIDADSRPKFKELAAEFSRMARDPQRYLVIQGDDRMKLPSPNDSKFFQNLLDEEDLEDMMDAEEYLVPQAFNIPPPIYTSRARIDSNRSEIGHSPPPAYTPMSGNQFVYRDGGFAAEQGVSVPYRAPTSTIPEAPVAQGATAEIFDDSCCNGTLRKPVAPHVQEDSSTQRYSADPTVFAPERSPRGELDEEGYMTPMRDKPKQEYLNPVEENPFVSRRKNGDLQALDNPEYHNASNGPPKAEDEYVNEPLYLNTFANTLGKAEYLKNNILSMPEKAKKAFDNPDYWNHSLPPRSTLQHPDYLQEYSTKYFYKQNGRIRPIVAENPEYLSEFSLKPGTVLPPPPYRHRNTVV
Chain of Macrophage-stimulating protein receptor (Q04912 25-304 limits assumed): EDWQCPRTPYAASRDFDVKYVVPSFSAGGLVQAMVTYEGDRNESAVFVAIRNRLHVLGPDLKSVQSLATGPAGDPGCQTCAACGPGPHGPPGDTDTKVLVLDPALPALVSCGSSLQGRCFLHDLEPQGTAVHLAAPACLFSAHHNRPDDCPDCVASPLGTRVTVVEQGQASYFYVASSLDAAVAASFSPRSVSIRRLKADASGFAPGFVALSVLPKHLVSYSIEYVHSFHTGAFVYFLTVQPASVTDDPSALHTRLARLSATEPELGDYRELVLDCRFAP
Chain of Macrophage-stimulating protein receptor (Q04912 310-1400 limits assumed): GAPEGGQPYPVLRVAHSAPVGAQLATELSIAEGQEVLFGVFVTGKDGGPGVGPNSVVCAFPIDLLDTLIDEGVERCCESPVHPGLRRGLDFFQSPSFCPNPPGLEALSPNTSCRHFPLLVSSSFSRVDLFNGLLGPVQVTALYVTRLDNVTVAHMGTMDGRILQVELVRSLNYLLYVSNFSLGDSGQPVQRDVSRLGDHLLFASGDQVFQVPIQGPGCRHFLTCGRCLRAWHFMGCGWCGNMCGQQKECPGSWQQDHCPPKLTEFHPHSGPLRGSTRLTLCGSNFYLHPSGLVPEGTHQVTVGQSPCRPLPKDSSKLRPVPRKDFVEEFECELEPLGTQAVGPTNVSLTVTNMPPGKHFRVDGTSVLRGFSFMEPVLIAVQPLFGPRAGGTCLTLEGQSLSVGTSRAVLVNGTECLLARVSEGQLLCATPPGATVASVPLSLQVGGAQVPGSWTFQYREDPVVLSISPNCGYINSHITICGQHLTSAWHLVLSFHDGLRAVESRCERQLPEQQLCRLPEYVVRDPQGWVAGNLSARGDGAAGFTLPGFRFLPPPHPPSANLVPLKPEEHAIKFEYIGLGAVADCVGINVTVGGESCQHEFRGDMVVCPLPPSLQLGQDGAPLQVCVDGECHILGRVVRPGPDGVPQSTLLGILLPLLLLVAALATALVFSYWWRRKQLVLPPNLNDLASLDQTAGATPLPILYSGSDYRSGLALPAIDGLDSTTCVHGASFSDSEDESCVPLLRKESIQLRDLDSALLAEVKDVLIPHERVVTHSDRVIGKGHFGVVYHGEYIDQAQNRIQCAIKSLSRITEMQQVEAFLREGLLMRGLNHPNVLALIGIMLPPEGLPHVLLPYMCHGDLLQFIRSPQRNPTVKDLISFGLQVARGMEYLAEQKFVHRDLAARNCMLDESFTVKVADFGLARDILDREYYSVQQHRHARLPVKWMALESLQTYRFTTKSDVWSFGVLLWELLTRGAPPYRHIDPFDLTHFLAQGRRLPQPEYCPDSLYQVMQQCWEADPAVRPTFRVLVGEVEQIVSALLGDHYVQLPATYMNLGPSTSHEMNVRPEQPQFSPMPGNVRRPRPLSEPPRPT

`COCCn1cc(NC(=O)c2csc(-c3nncn3C(C)C)n2)cn1`: at MAP kinase p38, the pIC50 is recorded as less than 4.7. Moreover, the IC50 is more than 20 µM in data set [1]; 7.59 µM in data set [2]; more than 20 µM on Ephrin type-A receptor 3; 5.37 µM in data set [3]; more than 20 µM in data set [4]; more than 20 µM in data set [5]. Besides, the inhibition at 10 µM on CYP3A4 was found to be 30%.
